From ChEMBL document CHEMBL3046797, “Structure-activity relationships of trichothecene toxins in an Arabidopsis thaliana leaf assay” (J Agric Food Chem, 2007)

Tested on: Arabidopsis thaliana
Assay: Phytotoxicity against Arabidopsis thaliana Col-4 leaves assessed as induction of leaf death at 50 uM […] by detached leaf assay
Assay type: organism-based
Conditions: in vivo

`CC1=CC(O)[C@@](C)([C@@]2(C)C[C@@H](O)[C@@H](O)C23CO3)CC1` (stereo partly drawn) [ISOTRICHOTRIOL] showed an Activity of 10%.

Tested on: Arabidopsis thaliana
Assay: Phytotoxicity against Arabidopsis thaliana Col-4 leaves assessed as induction of chlorosis at 10 uM […] by detached leaf assay
Assay type: organism-based
Conditions: in vivo

`CC1=CC(O)[C@@](C)([C@@]2(C)C[C@@H](O)[C@@H](O)C23CO3)CC1` (stereo partly drawn) [ISOTRICHOTRIOL] gave an Activity of 10%.

Tested on: Arabidopsis thaliana
Assay: Phytotoxicity against Arabidopsis thaliana Col-4 leaves assessed as induction of chlorosis, shriveling or death of leaves […] by detached leaf assay
Assay type: organism-based
Conditions: in vivo

Compared with `CC1=C[C@H]2O[C@@H]3[C@H](O)C[C@@H](O)[C@](C)([C@@]2(CO)CC1)[C@@]31CO1` [SCIRPENTRIOL], `CC1=C[C@H]2O[C@@H]3[C@H](O)CC[C@](C)([C@@]2(CO)CC1)[C@@]31CO1` [3,15-DIDEACETYLCALONECTRIN] is 1.7-fold higher in ED50: 53.6 µM for the first, 90.1 µM for the second.

Compared with `CC(=O)O[C@@H]1CC[C@]2(C)[C@@]3(C)CCC(C)=C[C@H]3O[C@H]1[C@]21CO1` [ISOTRICHODERMIN], `CC1=C[C@H]2O[C@@H]3[C@H](O)CC[C@](C)([C@@]2(C)CC1)[C@@]31CO1` [ISOTRICHODERMOL] is 2.5-fold lower in ED50: 8.6 µM for the first, 3.5 µM for the second.

`CC(=O)O[C@@H]1C[C@]2(C)[C@@]3(CO)[C@H](O)C(=O)C(C)=C[C@H]3O[C@H]1[C@@]21CO1` [3-ACETYLDEOXYNIVALENOL] and `CC1=C[C@H]2O[C@@H]3[C@H](O)C[C@](C)([C@@]2(CO)[C@H](O)C1=O)[C@]31CO1` [DEOXYNIVALENOL] are within 1.5-fold of each other in ED50: 3.4 µM for the first, 3.8 µM for the second.

Going from `CC(=O)O[C@@H]1C[C@@H](O)[C@H]2O[C@@H]3C=C(C)C(=O)[C@@H](O)[C@]3(CO)[C@]1(C)[C@@]21CO1` [4-ACETYLNIVALENOL] to `CC(=O)OC[C@]12[C@H](O)C(=O)C(C)=C[C@H]1O[C@@H]1[C@H](O)C[C@@]2(C)[C@]12CO2` [15-ACETYLDEOXYNIVALENOL], the ED50 falls from 16.1 µM to 1.3 µM (12-fold).

Going from `CC(=O)OC[C@]12[C@H](O)C(=O)C(C)=C[C@H]1O[C@@H]1[C@H](OC(C)=O)CC[C@@]2(C)[C@@]12CO2` [3,15-DIACETYLDEOXYNIVALENOL] to `CC(=O)OC[C@]12[C@H](O)C(=O)C(C)=C[C@H]1O[C@@H]1[C@H](OC(C)=O)C[C@@H](O)[C@@]2(C)[C@@]12CO2` [3,15-DIACETYLNIVALENOL], the ED50 falls from 10 µM to 2.2 µM (4.5-fold).

`CC(=O)OC[C@]12CCC(C)=C[C@H]1O[C@@H]1[C@H](OC(C)=O)C[C@@H](OC(C)=O)[C@@]2(C)[C@@]12CO2` [3,4,15-TRIACETOXYSCIRPENOL] and `CC(=O)OC[C@]12CCC(C)=C[C@H]1O[C@@H]1[C@H](O)CC[C@@]2(C)[C@@]12CO2` [3-DEACETYLCALONECTRIN] are within 1.5-fold of each other in ED50: 6.7 µM for the first, 7.6 µM for the second.

`CC1=C[C@H]2O[C@@H]3[C@H](O)[C@@H](O)[C@](C)([C@@]2(CO)[C@H](O)C1=O)[C@]31CO1` [NIVALENOL] gave an ED50 of over 100 µM.
In the case of `C=C1CCC[C@]1(C)[C@]1(C)CC=C(C)CC1` [TRICHODIENE], the ED50 is reported as over 100 µM.
Work on `CC1=CC(O)[C@@](C)([C@@]2(C)C[C@@H](O)[C@@H](O)C23CO3)CC1` (stereo partly drawn) [ISOTRICHOTRIOL] yielded an ED50 of over 100 µM.
`CC(=O)O[C@@H]1CC[C@]2(C)[C@@]3(CO)CCC(C)=C[C@H]3O[C@H]1[C@]21CO1` [15-DEACETYLCALONECTRIN] showed an ED50 of over 100 µM.

Tested on: Arabidopsis thaliana
Assay: Phytotoxicity against Arabidopsis thaliana Col-4 leaves assessed as induction of chlorosis at 50 uM […] by detached leaf assay
Assay type: organism-based
Conditions: in vivo, 1176 h

For `CC1=CC(O)[C@@](C)([C@@]2(C)C[C@@H](O)[C@@H](O)C23CO3)CC1` (stereo partly drawn) [ISOTRICHOTRIOL], the Activity was 10%.

Tested on: Arabidopsis thaliana
Assay: Phytotoxicity against Arabidopsis thaliana Col-4 leaves assessed as induction of leaf death at 100 uM […] by detached leaf assay
Assay type: organism-based
Conditions: in vivo

Going from `C=C1CCC[C@]1(C)[C@]1(C)CC=C(C)CC1` [TRICHODIENE] to `CC1=CC(O)[C@@](C)([C@@]2(C)C[C@@H](O)[C@@H](O)C23CO3)CC1` (stereo partly drawn) [ISOTRICHOTRIOL], the Activity rises from 3% to 10%.

Tested on: Arabidopsis thaliana
Assay: Phytotoxicity against Arabidopsis thaliana Col-4 leaves assessed as induction of leaf death at 10 uM […] by detached leaf assay
Assay type: organism-based
Conditions: in vivo

For `CC1=CC(O)[C@@](C)([C@@]2(C)C[C@@H](O)[C@@H](O)C23CO3)CC1` (stereo partly drawn) [ISOTRICHOTRIOL], the Activity was 10%.

Tested on: not listed separately
Assay: Phytotoxicity against Arabidopsis thaliana Col-4 leaves assessed as induction of leaf death after 7 weeks post compound application by detached leaf assay
Assay type: organism-based
Conditions: Col-4, arabidopsis thaliana, read-out: LD50

First: CC(=O)O[C@@H]1CC[C@]2(C)[C@@]3(C)CCC(C)=C[C@H]3O[C@H]1[C@]21CO1 [ISOTRICHODERMIN]
Second: CC(=O)OC[C@]12[C@H](O)C(=O)C(C)=C[C@H]1O[C@@H]1[C@H](OC(C)=O)CC[C@@]2(C)[C@@]12CO2 [3,15-DIACETYLDEOXYNIVALENOL]
The LC50 at 1176 h of the first is 1.8-fold lower: 16.1 µM for the first, 28.2 µM for the second.

`CC(=O)O[C@@H]1C[C@]2(C)[C@@]3(CO)[C@H](O)C(=O)C(C)=C[C@H]3O[C@H]1[C@@]21CO1` [3-ACETYLDEOXYNIVALENOL] and `CC1=C[C@H]2O[C@@H]3[C@H](O)C[C@](C)([C@@]2(CO)[C@H](O)C1=O)[C@]31CO1` [DEOXYNIVALENOL] are within 1.5-fold of each other in LC50 at 1176 h: 18.7 µM for the first, 23 µM for the second.

`CC(=O)OC[C@]12[C@H](O)C(=O)C(C)=C[C@H]1O[C@@H]1[C@H](O)C[C@@]2(C)[C@]12CO2` [15-ACETYLDEOXYNIVALENOL] and `CC(=O)OC[C@]12[C@H](O)C(=O)C(C)=C[C@H]1O[C@@H]1[C@H](OC(C)=O)C[C@@H](O)[C@@]2(C)[C@@]12CO2` [3,15-DIACETYLNIVALENOL] are within 1.5-fold of each other in LC50 at 1176 h: 4 µM for the first, 4.3 µM for the second.

`CC1=C[C@H]2O[C@@H]3[C@H](O)[C@@H](O)[C@](C)([C@@]2(CO)[C@H](O)C1=O)[C@]31CO1` [NIVALENOL] showed an LC50 at 1176 h of over 100 µM.

Tested on: Arabidopsis thaliana
Assay: Phytotoxicity against Arabidopsis thaliana Col-4 leaves assessed as induction of chlorosis at 100 uM […] by detached leaf assay
Assay type: organism-based
Conditions: in vivo, 1176 h

Compared with `CC1=C[C@H]2O[C@@H]3[C@H](O)[C@@H](O)[C@](C)([C@@]2(CO)[C@H](O)C1=O)[C@]31CO1` [NIVALENOL], `CC(=O)O[C@@H]1CC[C@]2(C)[C@@]3(CO)CCC(C)=C[C@H]3O[C@H]1[C@]21CO1` [15-DEACETYLCALONECTRIN] is higher in Activity: 10% for the first, 50% for the second.

`C=C1CCC[C@]1(C)[C@]1(C)CC=C(C)CC1` [TRICHODIENE] and `CC1=CC(O)[C@@](C)([C@@]2(C)C[C@@H](O)[C@@H](O)C23CO3)CC1` (stereo partly drawn) [ISOTRICHOTRIOL] are the same in Activity: 10% for the first, 10% for the second.
